How the values were obtained:
[1] = (§1) The drug is tested on WLS-090 corresponding to human gut metagenome with ENA study accession number: PRJEB37062 and ENA sample accession number: ERS12561753 for biotransformation under anaerobic condition. The drug concentrations were measured over 9 timepoints collected between 0 and 24 hours of incubation by liquid-chromatography-coupled mass spectrometry (LC–MS); conditions: 2 µM
[2] = human gut metagenome, 24 h, 2 µM
[3] = human gut metagenome, 24 h, 2 µM; remark: listed apart in the source
[4] = as §1, with “Z-008” for “WLS-090”, “to” for “to human gut”, “ERS12561808” for “ERS12561753”; conditions: 2 µM
[5] = as §1, with “WLS-069” for “WLS-090”, “ERS12561748” for “ERS12561753”; conditions: 2 µM
[6] = human gut metagenome, 24 h, 2 µM; remark: listed apart in the source
[7] = as §1, with “WLS-220” for “WLS-090”, “ERS12561769” for “ERS12561753”; conditions: 2 µM
[8] = as §1, with “WLS-052” for “WLS-090”, “ERS12561747” for “ERS12561753”; conditions: 2 µM
[9] = as §1, with “WLS-310” for “WLS-090”, “ERS12561785” for “ERS12561753”; conditions: 2 µM
[10] = human gut metagenome, 24 h, 2 µM; remark: listed apart in the source
[11] = as §1, with “Z-030” for “WLS-090”, “mouse” for “human”, “ERS12561829” for “ERS12561753”; conditions: 2 µM
[12] = as §1, with “Z-016” for “WLS-090”, “mouse” for “human”, “ERS12561815” for “ERS12561753”; conditions: 2 µM
[13] = as §1, with “WLS-039” for “WLS-090”, “ERS12561746” for “ERS12561753”; conditions: 2 µM
[14] = as §1, with “Z-017” for “WLS-090”, “mouse” for “human”, “ERS12561816” for “ERS12561753”; conditions: 2 µM
[15] = human gut metagenome, 24 h, 2 µM; remark: listed apart in the source
[16] = as §1, with “Z-023” for “WLS-090”, “to” for “to human gut”, “ERS12561822” for “ERS12561753”; conditions: 2 µM
[17] = human gut metagenome, 24 h, 2 µM; remark: listed apart in the source
[18] = as §1, with “Z-009” for “WLS-090”, “pig” for “human”, “ERS12561809” for “ERS12561753”; conditions: 2 µM
[19] = human gut metagenome, 24 h, 2 µM; remark: listed apart in the source
[20] = human gut metagenome, 24 h, 2 µM; remark: listed apart in the source
Also: call rule not given here.

Row | Structure (SMILES) | Bacterial Biotransformation [1] | Bacterial Biotransformation [2] | Bacterial Biotransformation [3] | Bacterial Biotransformation [4] | Bacterial Biotransformation [5] | Bacterial Biotransformation [6] | Bacterial Biotransformation [7] | Bacterial Biotransformation [8] | Bacterial Biotransformation [9] | Bacterial Biotransformation [10] | Bacterial Biotransformation [11] | Bacterial Biotransformation [12] | Bacterial Biotransformation [13] | Bacterial Biotransformation [14] | Bacterial Biotransformation [15] | Bacterial Biotransformation [16] | Bacterial Biotransformation [17] | Bacterial Biotransformation [18] | Bacterial Biotransformation [19] | Bacterial Biotransformation [20]
1 | CCOC(=O)[C@H](CCc1ccccc1)N[C@@H](C)C(=O)N1[C@H](C(=O)O)C[C@@H]2CCC[C@@H]21 | Compound metabolized | Compound metabolized | Compound metabolized | Compound NOT metabolized | Compound metabolized | Compound metabolized | Compound metabolized | Compound metabolized | Compound metabolized | Compound metabolized | Compound NOT metabolized | Compound metabolized | Compound metabolized | Compound NOT metabolized | Compound metabolized | Compound metabolized | Compound metabolized | Compound metabolized | Compound metabolized | Compound metabolized
2 | CCN(CC)CCNC(C(=O)OCCC(C)C)c1ccccc1.Cl.Cl (centres undefined) | Compound metabolized | Compound metabolized | Compound metabolized | Compound NOT metabolized | Compound metabolized | Compound metabolized | Compound NOT metabolized | Compound NOT metabolized | Compound metabolized | Compound NOT metabolized | Compound NOT metabolized | Compound NOT metabolized | Compound NOT metabolized | Compound NOT metabolized | Compound metabolized | Compound NOT metabolized | Compound metabolized | Compound metabolized | Compound NOT metabolized | Compound metabolized
3 | CCCC(=O)Nc1ccc(OCC(O)CNC(C)C)c(C(C)=O)c1 (centres undefined) [ACEBUTOLOL] | Compound metabolized | Compound metabolized | Compound metabolized | Compound NOT metabolized | Compound metabolized | Compound metabolized | Compound NOT metabolized | Compound NOT metabolized | Compound metabolized | Compound metabolized | Compound NOT metabolized | Compound NOT metabolized | Compound NOT metabolized | Compound NOT metabolized | Compound NOT metabolized | Compound metabolized | Compound metabolized | Compound NOT metabolized | Compound NOT metabolized | Compound NOT metabolized
4 | C=CCc1ccccc1OCC(O)CNC(C)C (centres undefined) [ALPRENOLOL] | Compound metabolized | Compound metabolized | Compound metabolized | Compound NOT metabolized | Compound NOT metabolized | Compound NOT metabolized | Compound metabolized | Compound NOT metabolized | Compound NOT metabolized | Compound metabolized | Compound NOT metabolized | Compound NOT metabolized | Compound NOT metabolized | Compound NOT metabolized | Compound NOT metabolized | Compound metabolized | Compound NOT metabolized | Compound NOT metabolized | Compound NOT metabolized | Compound NOT metabolized
5 | CC(C)c1c(C(=O)Nc2ccccc2)c(-c2ccccc2)c(-c2ccc(F)cc2)n1CC[C@@H](O)C[C@@H](O)CC(=O)O [ATORVASTATIN] | Compound metabolized | Compound NOT metabolized | Compound metabolized | Compound NOT metabolized | Compound metabolized | Compound NOT metabolized | Compound NOT metabolized | Compound metabolized | Compound metabolized | Compound metabolized | Compound NOT metabolized | Compound NOT metabolized | Compound metabolized | Compound NOT metabolized | Compound metabolized | Compound NOT metabolized | Compound NOT metabolized | Compound NOT metabolized | Compound metabolized | Compound metabolized
6 | CCOC(=O)[C@H](CCc1ccccc1)N[C@H]1CCc2ccccc2N(CC(=O)O)C1=O [BENAZEPRIL] | Compound metabolized | Compound metabolized | Compound metabolized | Compound metabolized | Compound metabolized | Compound metabolized | Compound metabolized | Compound metabolized | Compound metabolized | Compound metabolized | Compound metabolized | Compound metabolized | Compound metabolized | Compound metabolized | Compound metabolized | Compound metabolized | Compound metabolized | Compound metabolized | Compound metabolized | Compound metabolized
7 | NS(=O)(=O)c1cc2c(cc1Cl)N=C(CSCc1ccccc1)NS2(=O)=O [BENZTHIAZIDE] | Compound NOT metabolized | Compound NOT metabolized | Compound NOT metabolized | Compound NOT metabolized | Compound NOT metabolized | Compound NOT metabolized | Compound NOT metabolized | Compound NOT metabolized | Compound NOT metabolized | Compound NOT metabolized | Compound NOT metabolized | Compound NOT metabolized | Compound NOT metabolized | Compound NOT metabolized | Compound NOT metabolized | Compound metabolized | Compound NOT metabolized | Compound NOT metabolized | Compound NOT metabolized | Compound NOT metabolized
8 | Cc1cn([C@H]2C[C@H](N=[N+]=[N-])[C@@H](CO)O2)c(=O)[nH]c1=O [ZIDOVUDINE] | Compound NOT metabolized | Compound NOT metabolized | Compound NOT metabolized | Compound NOT metabolized | Compound NOT metabolized | Compound metabolized | Compound NOT metabolized | Compound NOT metabolized | Compound NOT metabolized | Compound NOT metabolized | Compound metabolized | Compound NOT metabolized |  | Compound metabolized | Compound NOT metabolized | Compound NOT metabolized | Compound NOT metabolized | Compound NOT metabolized | Compound NOT metabolized | Compound metabolized
